The test system of one assay is A2780/Adr. Kind of assay: FMCA cytotoxicity, multidrug-resistant ovarian cancer cell line A2780/Adr. The assay is classed as cell-based. An excerpt:
(§1) The Fluorometric Microculture Cytotoxicity Assay, FMCA (Larsson, R., et al.; Anticancer Res, 1989, 9, 1111-1119), is a three day non-clonogenic microplate-based cell viability assay used for measurement of the cytotoxic and/or cytostatic effect of compounds in vitro (Lindhagen, E. et al.; Nat. Protoc., 2008, 3, 1364-1369). FMCA represents a valuable method to measure cytotoxicity in a number of cell types, both cell lines and primary cells from patients (Larsson, R., et al.; Int. J. Cancer, 1992, 50, 177-185; Fridborg, H., et al.; Eur. J. Cancer, 1999. 35, 424-432; Dhar, S., et al.; Br. J. Cancer, 1996, 74, 888-896).
(§2) FMCA is based on the principle that fluorescein diacetate (FDA) is converted to the fluorescent probe fluorescein by esterases […]. For experiments, 96-well microplates are prepared with compounds and stored at −20° C. or −70° C. until use. Cells are then seeded into the drug-prepared plates and placed in an incubator for 72 h. On the last day of incubation, the plates are washed and a buffer containing FDA is added and incubated with the cells for 45 minutes. Finally the fluorescence per well is measured in a fluorometer and a Survival Index % (SI) for each compound-treated well is calculated with the equation: Compound-treated cells minus blank divided by control cells minus blank. A high SI-value indicates a large percentage of living cells and vice versa.
(§3) To obtain EC50-values, plates were prepared with compounds serially diluted in culture media to suitable concentration ranges for each compound. Thereafter cells were added at a density of 10 000 cells per well and FMCA was performed after 72 h. Data analysis was performed using GraphPadPrism software, where SI values for each concentration were plotted on a log scale and processed with non-linear regression and a standard sigmoidal dose-response model.
(§4) The compounds of the invention were also tested on further cancer cell lines related to ovarian cancer (A2780; see e.g. Hamilton, T. et al.; Semin. Oncol., 1984, 11, 285-298) and multidrug-resistant ovarian cancer (A2780/Adr). The known microtubule interfering agents vincristine and paclitaxel were included as references in the resistant and non-resistant ovarian cancer cell lines.

The subject of assay [1] is CCRF-CEM cancer cells - leukemia. As to the kind of experiment: Fluorometric Microculture Cytotoxicity Assay (FMCA), CCRF-CEM. The assay is classed as cell-based. As to conditions: Homo sapiens, 72 h, CCRF-CEM acute lymphoblastic leukemia cell line.
Description: as §1, §2
For experiments with compounds of the invention, 96-well plates were prepared as follows: Compounds were dissolved in DMSO to 10 mM and stored at −20° C. The test compounds were thawed, protected from light, mixed, and 3 μl stock solution was added to test tubes containing 297 μl culture medium RPMI-1640, to give the concentration 100 μM. Then, compounds were serially diluted to concentrations ten times higher than the desired test concentrations. Finally, 20 μl of each compound solution was added in duplicates to wells in two V-bottomed 96-well plates. The plates were stored at −20° C. until use.
On the day of cell seeding, 180 μl of cell suspension was added to each well in the two assay plates. The final concentrations of compounds tested were 10 μM, 1 μM, 0.1 μM and 0.01 μM. The experiment was performed twice.
In subsequent experiments, compounds were tested, along with a number of approved cancer drugs (dasatinib and pazopanib) as described above. The acute lymphoblastic leukemia cell line CCRF-CEM was used throughout. In the assay plates, medium was added to eight empty wells (blank wells) and wells filled with cell suspension served as control wells. SI-values were then calculated for each compound-treated well as described above. All experiments were conducted twice and a new batch of plates was prepared for each experiment.
as §3

The test system of the next assay is A2780. As to the kind of experiment: FMCA cytotoxicity, ovarian cancer cell line A2780. The assay is classed as cell-based. As to conditions: Homo sapiens.
Description: as §1, §2, §3, §4

The subject of assay [2] is colchicine site on tubulin (Porcine brain tubulin). Kind of assay: Colchicine displacement assay, fluorometric detection. The assay is classed as binding. Particulars: 2 μM porcine brain tubulin, 2 μM colchicine, compound at 20 μM, 2 h; control = colchicine bound to tubulin. As to the method: To study whether the compounds bind to the colchicine site on tubulin, a colchicine displacement assay using fluorometric detection was performed as previously described (Bhattacharyya B. et al.; Proc Natl Acad Sci U S A 1974, 71:2627-31; Risinger A L. et al.; J Pharmacol Exp Ther 2011: 336:652-60). Porcine brain tubulin at 2 μM (Cytoskeleton) in a buffer consisting of 80 mM PIPES, 2 mM MgCl2, 0.5 mM EGTA at pH 7.0 with addition of 1 mM GTP, was incubated alone, with 2 μM colchicine or with 2 μM colchicine in the presence of test compounds or reference compound combretastatin A4 at 20 μM for 2 h in a black half-area 96-well plate (Corning Inc, Corning, N.Y., USA). Thereafter, the fluorescence was measured using a FLUOStar Optima (BMG Labtech) at an excitation of 380 nm and emission of 440 nm. The results are presented as percent of control i.e. colchicine bound to tubulin.

The test system of assay [3] is VEGF-induced cord formation. Kind of assay: VEGF-driven vascular cord formation, stem cell co-culture model of angiogenesis (StemKit), neo-angiogenic setting. The assay is classed as cell-based. How it is done:
(§5) To study the vascular disrupting properties of one of the compounds, example 3, an evaluation of its inhibitory and disruptive effects on VEGF-driven vascular cord formation in an in vitro stem cell co-culture model of angiogenesis (StemKit, Essen Bioscience) was carried out.

A further assay deals with bovine tubulin protein. As to the kind of experiment: Tubulin polymerization assay kit (Cytoskeleton Inc), fluorescence. The assay is classed as biochemical. As to conditions: cell-free, example compounds at 1, 3 and 10 μM, controls at 3 μM, 60 mins, read-out: Inhibition of tubulin polymerization IC50. How it is done: Example compounds were further tested in a tubulin polymerization assay kit from Cytoskeleton Inc (Denver, Colo., USA). Polymerization is followed by fluorescence enhancement due to the incorporation of a fluorescent reporter into microtubules as polymerization occurs. Vincristine and paclitaxel at 3 μM were used as positive controls for tubulin polymerization inhibition and stabilisation, respectively. All compounds were dissolved in DMSO, which was used as solvent control. For experiments, example compounds (1, 3, and 10 μM) and control compounds (3 μM) were incubated with bovine tubulin protein in a cell-free environment and the fluorescence was then measured in a fluorometer (Fluostar Optima, BMG Labtech, Offenburg, Germany) at 360/450 nm every minute for a total of 60 mins.

The subject of another assay is established vessels. As to the kind of experiment: Stem cell co-culture model of angiogenesis (StemKit), established vessels. As to conditions: doses from 3 nM up to 100 nM, example 3 and combretastatin A4 had equal potency. The assay is classed as cell-based. As to the method: as §5

The text below walks through data of US20150225374A1, “4-INDAZOLYLAMINO-2-(2-(INDOL-3-YL)ETHYL)AMINOPYRIMIDINES USEFUL FOR THE TREATMENT OF CANCER” (NOVIGA RESEARCH AB, priority 2012, published 2015).

On to `COc1ccc2[nH]cc(CCNc3nccc(Nc4cccc5c4cnn5C)n3)c2c1` [Example 7, N^2-[2-(5-methoxy-1H-indol-3-yl)ethyl]-N^4-(1-methylindazol-4-yl)pyrimidine-2,4-diamine], for which the EC50 – broadly, the concentration that produces a half-maximal response – came out at 13 nM in the assay with A2780/Adr, 5.1 nM in assay [1] and 2.9 nM with A2780. For the same molecule, the “Colchicine-tubulin binding Percent of control” value in assay [2] is recorded as 64% of control.

For the molecule `CCOc1ccc2[nH]cc(CCNc3nccc(Nc4ccc5cn(C)nc5c4)n3)c2c1` [Example 3, N^2-[2-(5-ethoxy-1H-indol-3-yl)ethyl]-N^4-(2-methyl-2H-indazol-6-yl)pyrimidine-2,4-diamine], the EC50 in the assay with A2780/Adr worked out at 16 nM; in assay [1], 5.3 nM; in the assay with A2780, 0.72 nM. Also, the “inhibition of VEGF-induced cord formation” value in assay [3] (from the lowest tested dose 4.6 nM up to 10 μM) is on record as 100%. Besides, the IC50 – broadly, the concentration that gives 50% inhibition – with bovine tubulin protein is about 3000 nM. The “disruption of established blood vessels” value in the assay with established vessels is on record as “concentration dependent disruption of blood vessels”. Moreover, the “Colchicine-tubulin binding Percent of control” value in assay [2] is reported as 68% of control.

In the case of `COc1ccc(/C=C\c2cc(OC)c(OC)c(OC)c2)cc1O` [Combretastatin A4, combretastatin A4, reference compound], the “threshold concentration of inhibitory effect on VEGF-induced cord formation” value in assay [3] (tested from 0.78 nM and upwards, dose dependent inhibitory effect) stood at 1.6 nM. Also, the “disruption of established blood vessels” value with established vessels is listed as “concentration dependent disruption of blood vessels”. Also, the “Colchicine-tubulin binding Percent of control” value in assay [2] is 66% of control.

For `CC[C@]1(O)C[C@H]2CN(CCc3c([nH]c4ccccc34)[C@@](C(=O)OC)(c3cc4c(cc3OC)N(C=O)[C@H]3[C@@](O)(C(=O)OC)[C@H](OC(C)=O)[C@]5(CC)C=CCN6CC[C@]43[C@@H]65)C2)C1` [Vincristine, vincristine, reference compound], the EC50 in the assay with A2780/Adr was determined as 210 nM; with A2780 it was 0.22 nM. Besides, the IC50 in the assay on bovine tubulin protein was under 3000 nM.

`Cc1ccc(Nc2nccc(N(C)c3ccc4c(C)n(C)nc4c3)n2)cc1S(N)(=O)=O` [Ref. 2, pazopanib, reference compound] displayed an EC50 in assay [1] of 25900 nM.

Take `COc1ccc2[nH]cc(CCNc3nccc(Nc4ccc5c(C)n(C)nc5c4)n3)c2c1` [Example 4, N^4-(2,3-dimethyl-2H-indazol-6-yl)-N^2-[2-(5-methoxy-1H-indo1-3-yl)ethyl]pyrimidine-2,4-diamine]: the EC50 is 370 nM in the assay with A2780/Adr, 11 nM in assay [1] and 34 nM with A2780. The IC50 in the assay on bovine tubulin protein is about 3000 nM. Besides, in assay [2], the “Colchicine-tubulin binding Percent of control” value is 94% of control.

For `COc1ccc2[nH]cc(CCNc3nccc(Nc4ccc5cn(C)nc5c4)n3)c2c1` [Example 2, N^2-[2-(5-methoxy-1H-indol-3-yl)ethyl]-N^4-(2-methyl-2H-indazol-6-yl)pyrimidine-2,4-diamine], the EC50 in the assay with A2780/Adr stood at 34 nM; in assay [1], 5.1 nM; in the assay on A2780, 9.3 nM. Also, the “Colchicine-tubulin binding Percent of control” value in assay [2] is recorded as 77% of control.

As for `CCOc1ccc2[nH]cc(CCNc3nccc(Nc4ccc5c(C)n(C)nc5c4)n3)c2c1` [Example 5, N^4-(2,3-dimethyl-2H-indazol-6-yl)-N^2-[2-(5-ethoxy-1H-indol-3-yl)ethyl]pyrimidine-2,4-diamine], the EC50 with A2780/Adr was 150 nM; in assay [1], 5.5 nM; in the assay with A2780 it was 8.5 nM.

Regarding `CC(=O)O[C@H]1C(=O)[C@@]2(C)[C@H]([C@H](OC(=O)c3ccccc3)[C@]3(O)C[C@H](OC(=O)[C@H](O)[C@@H](NC(=O)c4ccccc4)c4ccccc4)C(C)=C1C3(C)C)[C@]1(OC(C)=O)CO[C@@H]1C[C@@H]2O` [Paclitaxel, paclitaxel, reference compound], the EC50 was determined as 810 nM with A2780/Adr and 0.26 nM in the assay with A2780.

Take `CCOc1ccc2[nH]cc(CCNc3nccc(Nc4cccc5c4cnn5C)n3)c2c1` [Example 1]: the EC50 was found to be 3.6 nM with A2780/Adr, 1.9 nM in assay [1] and 0.4 nM in the assay with A2780. The IC50 with bovine tubulin protein was in the range of 1000 to 3000 nM. In addition, the “Colchicine-tubulin binding Percent of control” value in assay [2] is reported as 68% of control.

For the molecule `Cc1nc(Nc2ncc(C(=O)Nc3c(C)cccc3Cl)s2)cc(N2CCN(CCO)CC2)n1` [Ref. 1, dasatinib, reference compound], a half-maximal response in assay [1] (EC50) required 9700 nM.

Consider `CCOc1ccc2[nH]cc(CCNc3nc(C)cc(Nc4ccc5c(C)n(C)nc5c4)n3)c2c1` [Example 6, N^4-(2,3-dimethylindazol-6-yl)-N^2-[2-(5-ethoxy-1H-indol-3-yl)ethyl]-6-methyl-pyrimidine-2,4-diamine], for which the EC50 is 390 nM in the assay on A2780/Adr, 34 nM in assay [1] and 47 nM with A2780. In addition, in the assay on bovine tubulin protein, the IC50 lay within 3000 to 10000 nM. Further, in assay [2], the “Colchicine-tubulin binding Percent of control” value is listed as 99% of control.
